These results are taken from ChEMBL document CHEMBL1201862, “PubChem BioAssay data set” (2004).

In assay [1] the target is T1, RNA-binding protein pos-1 (Caenorhabditis elegans, UniProt G5EF15).
T1 sequence (G5EF15 whole entry): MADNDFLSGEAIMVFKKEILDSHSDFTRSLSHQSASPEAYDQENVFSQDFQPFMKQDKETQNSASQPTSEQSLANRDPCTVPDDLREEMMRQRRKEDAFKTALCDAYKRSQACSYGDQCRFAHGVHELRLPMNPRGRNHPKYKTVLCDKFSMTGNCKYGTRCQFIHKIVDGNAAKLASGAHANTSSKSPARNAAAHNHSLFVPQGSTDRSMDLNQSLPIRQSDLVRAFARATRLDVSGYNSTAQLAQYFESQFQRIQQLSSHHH
Put plainly: disruptors of C. elegans POS-1 RNA interaction – biochemical, fluorescence polarization, dose response (AID 1964).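 Note: purified POS-1 fused to maltose binding protein made in E. coli; potency of compounds blocking POS-1 binding to fluorescent RNA.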 Background: In fluorescence polarisation assays a small probe gives low polarisation when free and higher when bound to something large.

The target of another assay is T2, Cysteine protease ATG4B (Homo sapiens, UniProt Q9Y4P1).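 Note: Fluorescence-based dose-response confirmation assay measuring inhibition of ATG4B activity.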
T2 sequence (Q9Y4P1 whole entry): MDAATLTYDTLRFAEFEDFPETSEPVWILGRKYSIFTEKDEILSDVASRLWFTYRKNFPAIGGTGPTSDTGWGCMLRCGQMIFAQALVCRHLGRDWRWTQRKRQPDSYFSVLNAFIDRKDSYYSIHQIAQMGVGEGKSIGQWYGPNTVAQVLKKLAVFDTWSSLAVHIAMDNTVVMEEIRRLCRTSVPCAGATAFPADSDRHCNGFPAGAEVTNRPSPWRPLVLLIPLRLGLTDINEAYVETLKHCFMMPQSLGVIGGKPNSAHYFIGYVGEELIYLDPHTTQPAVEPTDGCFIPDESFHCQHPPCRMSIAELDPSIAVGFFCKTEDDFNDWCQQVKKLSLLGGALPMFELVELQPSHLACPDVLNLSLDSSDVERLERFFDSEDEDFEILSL
Format: functional.

A further assay deals with Phospholipase A2 (Homo sapiens, UniProt P04054). Format: functional.
Assay [2] deals with Lysine-specific demethylase 4C (Homo sapiens, UniProt Q9H3R0). In words: inhibition of JMJD2C H3K9me3 demethylation – biochemical, DELFIA europium, cherry-picked samples, dose response (AID 488835). Format: functional.
For assay [3], the target named is Photoreceptor-specific nuclear receptor (Homo sapiens, UniProt Q9Y5X4). Format: functional.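 Note: potency for compounds that break the NR2E3 corepressor complex and count as activators.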
A short description of assay [4]: Intein inhibitors as potential Tuberculosis drugs, a cytotoxicity screen. [Related pubchem assays (depositor defined):AID2221, AID2223, AID434968, AID435010, AID449749, AID449750, AID489010]. Format: functional.
For assay [5], the target named is T3, DNA repair and recombination protein RAD54-like (Homo sapiens, UniProt Q92698).
T3 sequence (Q92698 whole entry): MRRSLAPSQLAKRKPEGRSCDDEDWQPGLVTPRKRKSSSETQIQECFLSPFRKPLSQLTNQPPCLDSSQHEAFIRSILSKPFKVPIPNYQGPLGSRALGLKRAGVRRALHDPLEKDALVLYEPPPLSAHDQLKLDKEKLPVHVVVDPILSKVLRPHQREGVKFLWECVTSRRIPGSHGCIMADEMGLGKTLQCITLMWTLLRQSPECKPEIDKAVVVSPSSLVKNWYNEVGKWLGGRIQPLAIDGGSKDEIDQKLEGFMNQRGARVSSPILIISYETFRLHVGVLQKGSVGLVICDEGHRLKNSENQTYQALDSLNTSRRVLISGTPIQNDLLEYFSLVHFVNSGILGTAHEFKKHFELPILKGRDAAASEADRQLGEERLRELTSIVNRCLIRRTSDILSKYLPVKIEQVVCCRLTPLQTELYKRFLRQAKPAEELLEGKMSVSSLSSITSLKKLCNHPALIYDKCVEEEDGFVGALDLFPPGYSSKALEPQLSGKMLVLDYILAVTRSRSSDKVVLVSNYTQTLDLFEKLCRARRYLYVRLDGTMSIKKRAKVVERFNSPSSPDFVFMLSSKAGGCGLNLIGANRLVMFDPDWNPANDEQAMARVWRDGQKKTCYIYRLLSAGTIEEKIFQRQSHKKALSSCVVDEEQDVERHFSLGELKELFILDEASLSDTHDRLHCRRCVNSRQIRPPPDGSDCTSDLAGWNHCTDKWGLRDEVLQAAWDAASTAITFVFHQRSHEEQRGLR
In words: RAD54 Holliday junction migration blockers – biochemical, fluorescence, cherry-picked samples, dose series, confirmation (AID 651657). Format: functional.

Assay [6] can be described thus: HEK-293T viability loss after treatment – luminescence, T-cell screen hits, cytotoxicity control for TCR NF-kB inhibitor project, dose response (AID 489026).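 Note: cells exposed to compound about 14 hours before the viability readout.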 Format: functional, cell-based.
In assay [7] the test system is BJ. Put plainly: growth inhibition of engineered Ras-driven BJ cells – cell-based, alamar blue fluorescence, cherrypicked samples, dose response (AID 2631).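 Note: confirmatory dose-response assay in RAS-dependent BJ fibroblasts engineered with TERT, LT and ST, with cytotoxicity read by fluorescence.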 Format: functional. Conditions: Homo sapiens. On the technique in general: Resazurin is reduced to fluorescent resorufin, in cell work by metabolically active cells.
Assay [8] can be described thus: HIV-1 AD8 envelope cell-cell fusion blockers – cherry-pick, dose response (AID 652062).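 Note: luciferase signal from cell-cell fusion driven by HIV-1 clade B AD8 Env; potency is for inhibitors of fusion seen as a drop in luminescence.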 Format: functional, cell-based.
Assay [9] deals with BJ. Put plainly: cells. Format: functional, cell-based. Conditions: Homo sapiens.
Assay [10] in a line: off-target signal loss in HeLa-CEM21 co-culture – HeLa F-luc CTL cells, cherry-picked, counter-screen for HIV-1 Env fusion inhibitor project, dose response (AID 652040).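 Note: potency for signal decrease marking cytotoxic or nonspecific inhibition.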 Format: functional, cell-based. For orientation: A counterscreen serves to expose hits that act by an unwanted route or on another target.

SMILES strings stand for the structures. Calls of active or inactive are those of the source.
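Throughout, for CC50: cells exposed to compound for 72 hours before luminescence readout.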

Sequence of Phospholipase A2 (P04054 whole entry): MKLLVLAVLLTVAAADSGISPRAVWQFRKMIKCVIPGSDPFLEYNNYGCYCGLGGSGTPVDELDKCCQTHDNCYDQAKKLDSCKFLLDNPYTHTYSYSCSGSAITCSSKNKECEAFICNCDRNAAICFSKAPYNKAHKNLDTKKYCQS
Sequence of Photoreceptor-specific nuclear receptor (Q9Y5X4 whole entry): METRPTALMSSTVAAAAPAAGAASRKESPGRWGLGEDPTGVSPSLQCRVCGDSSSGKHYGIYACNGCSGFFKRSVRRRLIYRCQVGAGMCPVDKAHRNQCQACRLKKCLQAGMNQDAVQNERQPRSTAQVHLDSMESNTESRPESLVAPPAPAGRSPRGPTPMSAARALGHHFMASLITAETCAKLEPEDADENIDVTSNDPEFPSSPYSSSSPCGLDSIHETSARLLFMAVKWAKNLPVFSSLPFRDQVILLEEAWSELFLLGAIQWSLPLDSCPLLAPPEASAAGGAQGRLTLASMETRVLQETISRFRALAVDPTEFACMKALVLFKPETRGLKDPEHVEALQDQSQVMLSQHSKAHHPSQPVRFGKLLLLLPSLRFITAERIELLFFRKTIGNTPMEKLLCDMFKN
Sequence of Lysine-specific demethylase 4C (Q9H3R0 whole entry): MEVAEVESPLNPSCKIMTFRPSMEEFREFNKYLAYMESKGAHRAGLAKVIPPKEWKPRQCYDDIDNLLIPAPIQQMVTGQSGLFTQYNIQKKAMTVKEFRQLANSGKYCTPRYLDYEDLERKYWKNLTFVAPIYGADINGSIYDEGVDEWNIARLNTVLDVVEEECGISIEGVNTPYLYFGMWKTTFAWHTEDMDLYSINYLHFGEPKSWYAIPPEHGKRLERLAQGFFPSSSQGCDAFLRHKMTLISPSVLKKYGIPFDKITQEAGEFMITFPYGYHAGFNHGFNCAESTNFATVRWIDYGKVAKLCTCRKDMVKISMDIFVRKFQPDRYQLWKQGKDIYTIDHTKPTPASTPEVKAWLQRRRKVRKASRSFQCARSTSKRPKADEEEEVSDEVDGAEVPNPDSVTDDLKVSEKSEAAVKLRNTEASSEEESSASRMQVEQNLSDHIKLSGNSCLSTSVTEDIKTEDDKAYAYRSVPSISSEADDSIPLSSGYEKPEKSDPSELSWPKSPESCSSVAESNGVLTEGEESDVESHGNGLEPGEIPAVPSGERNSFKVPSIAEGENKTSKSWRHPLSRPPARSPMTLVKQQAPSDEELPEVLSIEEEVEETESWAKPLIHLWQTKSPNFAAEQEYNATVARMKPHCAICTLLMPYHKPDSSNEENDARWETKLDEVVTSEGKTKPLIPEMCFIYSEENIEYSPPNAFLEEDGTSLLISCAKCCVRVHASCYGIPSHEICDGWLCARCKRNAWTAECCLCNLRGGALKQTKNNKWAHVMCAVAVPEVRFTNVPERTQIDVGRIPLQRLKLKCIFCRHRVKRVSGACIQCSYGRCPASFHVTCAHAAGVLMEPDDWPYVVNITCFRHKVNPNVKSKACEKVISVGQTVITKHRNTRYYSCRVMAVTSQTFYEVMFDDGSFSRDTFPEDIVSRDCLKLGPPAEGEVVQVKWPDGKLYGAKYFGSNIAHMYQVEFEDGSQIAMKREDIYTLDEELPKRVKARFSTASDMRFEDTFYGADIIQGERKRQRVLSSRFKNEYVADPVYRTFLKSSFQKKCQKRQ

In the case of `COc1ccc(NS(=O)(=O)c2ccc3c(c2)[C@H]2C=CC[C@H]2[C@@H](c2ccc(C(=O)O)cc2)N3)cc1`, the EC50 (usually the concentration at which the effect is half-maximal) in assay [1] was 14.3 µM (inconclusive). For the same molecule, the IC50 (as a rule, the concentration needed to halve the response being measured) on Cysteine protease ATG4B was 5.28 µM (active); at Phospholipase A2 it was 6.87 µM (active).

On to `Cn1nc(-c2ccccn2)nc2c(=O)n(C)c(=O)nc1-2`, for which the results for the AC50 in assay [2] and in assay [5] were 0.873 µM (active) and 1.22 µM (active), respectively. Besides, the IC50 at Cysteine protease ATG4B is 2.07 µM (active); in [3], > 39.8 µM (not active); in [6] it was 4.26 µM (active); on Phospholipase A2, > 80 µM (inactive). Further, in assay [4], the CC50 – broadly, the concentration giving 50% cytotoxicity – was > 40 µM (active).

With `CCCCCCCCCCn1c2c(c(=N)c3c1CCC3)CCC2`, the EC50 with BJ [7] was 0.706 µM (active); with BJ [9], 2.46 µM (inconclusive). For the same molecule, the values for the AC50 in assay [8] and in [10] were 0.726 µM (active) and 0.424 µM (active), respectively. Further, in [4], the CC50 was 8.51 µM (active). Besides, the IC50 in assay [6] is 38.4 µM (inactive).
